Test system: NCI-H196 complex spheroid growth, percent test/control
Assay: Anticancer human tumor NCI-H196 cell line growth inhibition [AhR];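 note: seven days of drug exposure starting three days after plating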;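 for viability, T/C: 100% = DMSO vehicle control wells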
Conditions: for IC50: curve of first compound; for viability, T/C: stronger effect = lower value
Summary of the method: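 Agents were dosed in half-log steps down from roughly clinical Cmax, or from 10 microM where Cmax was unknown, alone and with AhR antagonists. Read-out: percent test/control growth of tumor spheroids containing HUVEC and MSC stromal cells.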

[1] = second compound 0.1 µM, first compound 0.00949 µM
[2] = second compound 0.1 µM, first compound 0.03 µM
[3] = second compound 0.1 µM, first compound 0.0949 µM
[4] = second compound 0.1 µM, first compound 0.3 µM
[5] = second compound 0.316 µM, first compound 0.00949 µM
[6] = second compound 0.316 µM, first compound 0.03 µM
[7] = second compound 0.316 µM, first compound 0.0949 µM
[8] = second compound 0.316 µM, first compound 0.3 µM
[9] = second compound 1 µM, first compound 0.00949 µM
[10] = second compound 1 µM, first compound 0.03 µM
[11] = second compound 1 µM, first compound 0.0949 µM
[12] = second compound 1 µM, first compound 0.3 µM
[13] = second compound 3.16 µM, first compound 0.00949 µM
[14] = second compound 3.16 µM, first compound 0.03 µM
[15] = second compound 3.16 µM, first compound 0.0949 µM
[16] = second compound 3.16 µM, first compound 0.3 µM
[17] = second compound 10 µM, first compound 0.00949 µM
[18] = second compound 10 µM, first compound 0.03 µM
[19] = second compound 10 µM, first compound 0.0949 µM
[20] = second compound 10 µM, first compound 0.3 µM

For `CCc1c2c(nc3ccc(O)cc13)-c1cc3c(c(=O)n1C2)COC(=O)[C@]3(O)CC` + CC(CO)NC(=O)c1cc(-c2ccc(Cl)cc2)nn(-c2cnn(C)c2)c1=O, the IC50 (second compound 0.1 µM) was over 300 nM, the IC50 (second compound 0.316 µM) was over 300 nM and the IC50 (second compound 1 µM) was over 300 nM. It also gave an IC50 (second compound 3.16 µM) of over 300 nM, an IC50 (second compound 10 µM) of over 300 nM and a viability, T/C (second compound 0.1 µM, first compound 0.000949 µM) of 98%. It also gave a viability, T/C (second compound 0.1 µM, first compound 0.003 µM) of 104%, a viability, T/C [1] of 107% and a viability, T/C [2] of 105%. For the same compound, the viability, T/C [3] was 103%, the viability, T/C [4] was 92.9% and the viability, T/C (second compound 0.316 µM, first compound 0.000949 µM) was 108%. The viability, T/C (second compound 0.316 µM, first compound 0.003 µM) was 116%, the viability, T/C [5] was 113% and the viability, T/C [6] was 113%. The viability, T/C [7] was 108%, the viability, T/C [8] was 92.2% and the viability, T/C (second compound 1 µM, first compound 0.000949 µM) was 108%. It also gave a viability, T/C (second compound 1 µM, first compound 0.003 µM) of 115%, a viability, T/C [9] of 117% and a viability, T/C [10] of 98.4%. For the same compound, the viability, T/C [11] was 101%, the viability, T/C [12] was 81.8% and the viability, T/C (second compound 3.16 µM, first compound 0.000949 µM) was 112%. For the same compound, the viability, T/C (second compound 3.16 µM, first compound 0.003 µM) was 110%, the viability, T/C [13] was 105% and the viability, T/C [14] was 104%. The viability, T/C [15] was 101%, the viability, T/C [16] was 85.3% and the viability, T/C (second compound 10 µM, first compound 0.000949 µM) was 111%. The viability, T/C (second compound 10 µM, first compound 0.003 µM) was 111%, the viability, T/C [17] was 112% and the viability, T/C [18] was 107%. The viability, T/C [19] was 107% and the viability, T/C [20] was 87.7%.

For `O=C(C=Cn1cnc(-c2cc(C(F)(F)F)cc(C(F)(F)F)c2)n1)NNc1cnccn1` + Cc1cncc(-c2nc(NCCc3c[nH]c4ccccc34)c3ncn(C(C)C)c3n2)c1, the IC50 (second compound 0.1 µM) was 44.3 nM, the IC50 (second compound 0.316 µM) was 34 nM and the IC50 (second compound 1 µM) was 42 nM. It also gave an IC50 (second compound 3.16 µM) of 40.2 nM, an IC50 (second compound 10 µM) of 38.7 nM and a viability, T/C [1] of 75.3%. It also gave a viability, T/C [2] of 65%, a viability, T/C [3] of 20.6% and a viability, T/C [4] of 8.92%. For the same compound, the viability, T/C (second compound 0.1 µM, first compound 0.949 µM) was 8.7%, the viability, T/C (second compound 0.1 µM, first compound 3 µM) was 5.72% and the viability, T/C [5] was 73.5%. The viability, T/C [6] was 52.7%, the viability, T/C [7] was 25.1% and the viability, T/C [8] was 9.13%. The viability, T/C (second compound 0.316 µM, first compound 0.949 µM) was 9.31%, the viability, T/C (second compound 0.316 µM, first compound 3 µM) was 8.45% and the viability, T/C [9] was 71%. It also gave a viability, T/C [10] of 59.2%, a viability, T/C [11] of 27.9% and a viability, T/C [12] of 13%. For the same compound, the viability, T/C (second compound 1 µM, first compound 0.949 µM) was 8.4%, the viability, T/C (second compound 1 µM, first compound 3 µM) was 7.77% and the viability, T/C [13] was 80%. It also gave a viability, T/C [14] of 59.4%, a viability, T/C [15] of 22.4% and a viability, T/C [16] of 10.5%. For the same compound, the viability, T/C (second compound 3.16 µM, first compound 0.949 µM) was 8.06%, the viability, T/C (second compound 3.16 µM, first compound 3 µM) was 8.49% and the viability, T/C [17] was 65.2%. The viability, T/C [18] was 62.8%, the viability, T/C [19] was 4.24% and the viability, T/C [20] was 2.39%. The viability, T/C (second compound 10 µM, first compound 0.949 µM) was 8.19% and the viability, T/C (second compound 10 µM, first compound 3 µM) was 5.29%.

With `COc1ccc([C@@H](O)c2cc(-c3ncnc4cc(N5CCOCC5)ccc34)c(F)cc2Cl)nn1` + Cc1cncc(-c2nc(NCCc3c[nH]c4ccccc34)c3ncn(C(C)C)c3n2)c1 the IC50 (second compound 0.1 µM) was over 10000 nM, the IC50 (second compound 0.316 µM) was over 10000 nM and the IC50 (second compound 1 µM) was over 10000 nM. For the same compound, the IC50 (second compound 3.16 µM) was over 10000 nM, the IC50 (second compound 10 µM) was over 10000 nM and the viability, T/C (second compound 0.1 µM, first compound 0.0316 µM) was 102%. It also gave a viability, T/C (second compound 0.1 µM, first compound 0.1 µM) of 101%, a viability, T/C (second compound 0.1 µM, first compound 0.316 µM) of 97% and a viability, T/C (second compound 0.1 µM, first compound 1 µM) of 91.4%. The viability, T/C (second compound 0.1 µM, first compound 3.16 µM) was 78.7%, the viability, T/C (second compound 0.1 µM, first compound 10 µM) was 84.7% and the viability, T/C (second compound 0.316 µM, first compound 0.0316 µM) was 95.3%. The viability, T/C (second compound 0.316 µM, first compound 0.1 µM) was 99.6%, the viability, T/C (second compound 0.316 µM, first compound 0.316 µM) was 101% and the viability, T/C (second compound 0.316 µM, first compound 1 µM) was 97.7%. For the same compound, the viability, T/C (second compound 0.316 µM, first compound 3.16 µM) was 92.6%, the viability, T/C (second compound 0.316 µM, first compound 10 µM) was 80.7% and the viability, T/C (second compound 1 µM, first compound 0.0316 µM) was 104%. For the same compound, the viability, T/C (second compound 1 µM, first compound 0.1 µM) was 111%, the viability, T/C (second compound 1 µM, first compound 0.316 µM) was 97.6% and the viability, T/C (second compound 1 µM, first compound 1 µM) was 87.3%. It also gave a viability, T/C (second compound 1 µM, first compound 3.16 µM) of 95.5%, a viability, T/C (second compound 1 µM, first compound 10 µM) of 84% and a viability, T/C (second compound 3.16 µM, first compound 0.0316 µM) of 105%. It also gave a viability, T/C (second compound 3.16 µM, first compound 0.1 µM) of 108%, a viability, T/C (second compound 3.16 µM, first compound 0.316 µM) of 106% and a viability, T/C (second compound 3.16 µM, first compound 1 µM) of 94.2%. For the same compound, the viability, T/C (second compound 3.16 µM, first compound 3.16 µM) was 94%, the viability, T/C (second compound 3.16 µM, first compound 10 µM) was 94.2% and the viability, T/C (second compound 10 µM, first compound 0.0316 µM) was 69.8%. It also gave a viability, T/C (second compound 10 µM, first compound 0.1 µM) of 90.4%, a viability, T/C (second compound 10 µM, first compound 0.316 µM) of 92.2% and a viability, T/C (second compound 10 µM, first compound 1 µM) of 77.7%. For the same compound, the viability, T/C (second compound 10 µM, first compound 3.16 µM) was 77.8% and the viability, T/C (second compound 10 µM, first compound 10 µM) was 71%.
